This note sets out measurements from publication PMC6479814, “Structure-Based Design of Novel Benzimidazole Derivatives as Pin1 Inhibitors” (Molecules, 2019).

The target of one data set is T1, Pin1 (Homo sapiens, UniProt Q13526).
T1 construct: purchased Sino Biological Inc., Beijing, China
Description: Pin1 inhibition, protease-coupled assay. Type of data set: biochemical. The note with it: 10 °C; for inhibition at 10 µM: Pin1, compound at 10 μM; for IC50: Pin1, protease-coupled assay. The procedure:
To investigate the Pin1 inhibitory potency of all synthesized compounds, the inhibition ratio at 10 μM or IC50 of all synthesized compounds was determined using protease-coupled assay.
Pin1 inhibitory activities were measured at 10 °C by protease-coupled assay as reported previous. Suc-Ala-Glu-cis-Pro-Phe-4-nitroaniline (Bachem, Bubendorf, Switzerland) in 0.47 mol/L, LiCl/trifluoroethanol was used as the substrate. The assay buffer (860 μL of 35 mM HERES at pH 7.8), Pin1 (20 μL, Bought from Sino Biological Inc., Beijing, China) and target compounds (10 μL of varying comcentrations in DMSO) were pre-equilibtated in the cuvette at 10 °C for 30 min. Then, 150 uL of ice-cooled chymotrypsin (60 mg/mL in 0.001 M/HCl) was added and mixed immediately. Additional substrate (40 μL) was added to start the assay and the reaction was monitored by absorbance at 390 nm for 90 s. For each compound, four concentrations (10 μM, 3.3 μM, 1.1 μM, 0.37 μM) were chosen, and the assay was performed in duplicate. The data was analyzed by Graphpad Prism 6.0.

In another data set the test system is PC-3 cells. Put plainly: In vitro anti-proliferative MTT assay. To be noted: for GI50: Homo sapiens, PC-3 cells, MTT, 96 h; for antiproliferative activity against human prostate cancer PC-3 cells: result in words. The data set is classed as cell-based, human. The protocol: As for Pin1 was overexpressed in human prostate cancer cells, the antiproliferative activity of these benzimidazole derivatives against PC-3 cells were further evaluated by MTT assay. Meanwhile, the polar surface area (PSA) of these compounds was calculated under the optimal conformation since PSA is the key indicator of membrane permeability.
The tested cells were plated in 96-well microtiter plates with a density of 2,000 cells/well and incubated in a humidified atmosphere with 5% CO2 at 37 °C for 24 h. The cells were then exposed to tested compounds of different concentrations in triplicate. After incubated for 96 h, 50 μL of 3-(4,5-dimethylthiazol-2-yl)-2,5-diphenyltetrazolium bromide (MTT) solution (2 mg/mL) was added to each well and incubated for an additional 4 h. Then the suspernatant was discarded and the fromazan was dissolved in 200 μL of dimethyl sulfoxide (DMSO). The plate was oscillated subtly at room temperature for 10 min before the absorbance was measured at 570 nm by a microplate reader. Cell inhibitory ratio was calculated with the following formula:Inhibitory Rate (%) = [(Acontrol − Atreated)/Acontrol] × 100%(1)
The GI50 was determined as the concentration that caused half inhibition of cell proliferation. All experiments were performed three times independently, and the results were reported presented as the mean.

T1 sequence (Q13526 whole entry): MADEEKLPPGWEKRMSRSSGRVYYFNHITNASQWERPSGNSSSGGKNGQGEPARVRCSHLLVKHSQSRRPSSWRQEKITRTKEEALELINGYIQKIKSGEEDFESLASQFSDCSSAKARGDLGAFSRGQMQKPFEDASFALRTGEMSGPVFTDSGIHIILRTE

As to `O=C(O)/C=C/c1nc2ccccc2n1CCC(=O)N1CCCCC1` [Compound 6a, (E)-3-(1-(3-oxo-3-(piperidin-1-yl)propyl)-1H-benzo[d]imidazol-2-yl)acrylic acid], the melting point lay in the range of 128 to 130 °C. Also, the inhibition at 10 µM at Pin1 is 28%. The GI50 in the data set with PC-3 cells is above 50 µM.
In the case of `O=C(O)/C=C/c1nc2ccccc2n1CCC(=O)N1CCOCC1` [Compound 6b, (E)-3-(1-(3-Morpholino-3-oxopropyl)-1H-benzo[d]imidazol-2-yl) acrylic acid], the melting point lay within 207 to 209 °C. At Pin1, this compound registered an inhibition at 10 µM of 27%. The same compound yielded a GI50 in the data set on PC-3 cells above 50 µM.
In turn, `O=C(O)/C=C/c1nc2ccccc2n1CCC(=O)Nc1ccccc1` [Compound 6c, (E)-3-(1-(3-Oxo-3-(phenylamino)propyl)-1H-benzo[d]imidazol-2-yl)acrylic acid] gave a melting point of 228 to 230 °C. On Pin1, this compound showed an inhibition at 10 µM of 46%. In addition, the concentration for 50% growth inhibition (GI50) in the data set with PC-3 cells is above 50 µM.
With `Cc1ccc(NC(=O)CCn2c(/C=C/C(=O)O)nc3ccccc32)cc1` [Compound 6d, (E)-3-(1-(3-Oxo-3-(p-tolylamino)propyl)-1H-benzo[d]imidazol-2-yl)acrylic acid], the melting point was in the range of 221 to 222 °C. At Pin1, this compound gave an inhibition at 10 µM of 75% and an IC50 of 1.65 µM. In the data set on PC-3 cells, the GI50 was 17.4 µM and the “antiproliferative activity against human prostate cancer PC-3 cells” value (shortened to “antiproliferative activity”) is reported as “moderate antiproliferative activity”.
Compound `COc1ccc(NC(=O)CCn2c(/C=C/C(=O)O)nc3ccccc32)cc1` [Compound 6e, (E)-3-(1-(3-((4-Methoxyphenyl)amino)-3-oxopropyl)-1H-benzo[d]imidazol-2-yl)acrylic acid] showed a melting point of 215 to 217 °C. Further, 10 µM produced 48% inhibition on Pin1. Further, the GI50 in the data set on PC-3 cells was above 50 µM.
For `O=C(O)/C=C/c1nc2ccccc2n1CCC(=O)Nc1ccc(Cl)cc1` [Compound 6f, (E)-3-(1-(3-((4-Chlorophenyl)amino)-3-oxopropyl)-1H-benzo[d]imidazol-2-yl)acrylic acid], in that order: 158 to 160 °C, 54% and above 50 µM.
Consider `O=C(O)/C=C/c1nc2ccccc2n1CCC(=O)Nc1ccc(Br)cc1` [Compound 6g, (E)-3-(1-(3-((4-Bromophenyl)amino)-3-oxopropyl)-1H-benzo[d]imidazol-2-yl)acrylic acid], for which the melting point was 192 to 194 °C. On Pin1, this compound gave an inhibition at 10 µM of 66% and an IC50 of 1.73 µM. Also, in the data set on PC-3 cells, the GI50 came to 14.1 µM and the “antiproliferative activity” value was “moderate antiproliferative activity”.
For the compound `O=C(O)/C=C/c1nc2ccccc2n1CCC(=O)Nc1cccc(Br)c1` [Compound 6h, (E)-3-(1-(3-((3-Bromophenyl)amino)-3-oxopropyl)-1H-benzo[d]imidazol-2-yl)acrylic acid], the melting point lay in the range of 209 to 210 °C. On Pin1, the inhibition at 10 µM worked out at 90% and the IC50 worked out at 0.64 µM. Also, in the data set with PC-3 cells, the GI50 amounted to 9.89 µM and the “antiproliferative activity” value is “moderate antiproliferative activity”.
For the compound `COc1cc(NC(=O)CCn2c(/C=C/C(=O)O)nc3ccccc32)cc(OC)c1` [Compound 6i, (E)-3-(1-(3-((3,5-dimethoxyphenyl)amino)-3-oxopropyl)-1H-benzo[d]imidazol-2-yl)acrylic acid], the melting point is 203 to 204 °C. On Pin1, this compound displayed an inhibition at 10 µM of 60%. This compound also came in with a concentration for 50% growth inhibition (GI50) in the data set with PC-3 cells above 50 µM.
For `O=C(O)/C=C/c1nc2ccccc2n1CCC(=O)NCc1ccc(Br)cc1` [Compound 6j, (E)-3-(1-(3-((4-Bromobenzyl)amino)-3-oxopropyl)-1H-benzo[d]imidazol-2-yl)acrylic acid], in that order: 210 to 212 °C, 59% and above 50 µM.
Taken in the same sequence, the figures for `O=C(O)/C=C/c1nc2ccccc2n1CCC(=O)NCCc1ccc(Br)cc1` [Compound 6k, (E)-3-(1-(3-((4-Bromophenethyl)amino)-3-oxopropyl)-1H-benzo[d]imidazol-2-yl)acrylic acid] were 203 to 205 °C, 62% and above 50 µM.
Taken in the same sequence, the figures for `COc1ccc(CNC(=O)CCn2c(/C=C/C(=O)O)nc3ccccc32)cc1` [Compound 6l, (E)-3-(1-(3-((4-Methoxybenzyl)amino)-3-oxopropyl)-1H-benzo[d]imidazol-2-yl)acrylic acid] were 203 to 205 °C, 42% and above 50 µM.
Take `COc1ccc(CCNC(=O)CCn2c(/C=C/C(=O)O)nc3ccccc32)cc1` [Compound 6m, (E)-3-(1-(3-((4-Methoxyphenethyl)amino)-3-oxopropyl)-1H-benzo[d]imidazol-2-yl)acrylic acid]: the melting point fell in the range of 219 to 220 °C. In addition, the inhibition at 10 µM against Pin1 was found to be 49%. The same compound returned a GI50 with PC-3 cells above 50 µM.
With `O=C(O)/C=C/c1nc2ccccc2n1CCC(=O)Nc1cc(Cl)cc(Cl)c1` [Compound 6n, (E)-3-(1-(3-((3,5-Dichlorophenyl)amino)-3-oxopropyl)-1H-benzo[d]imidazol-2-yl)acrylic acid], the melting point was 152 to 154 °C. At Pin1, this compound had an inhibition at 10 µM of 71% and an IC50 of 1.87 µM. In addition, in the data set on PC-3 cells, halving of growth (GI50) required 20.3 µM and the “antiproliferative activity” value was “moderate antiproliferative activity”.
In the case of `Cc1cc(C)c(NC(=O)CCn2c(/C=C/C(=O)O)nc3ccccc32)c(C)c1` [Compound 6o, (E)-3-(1-(3-((2,4,6-Trimethylphenyl)amino)-3-oxopropyl)-1H-benzo[d]imidazol-2-yl)acrylic acid], the melting point lay in the range of 275 to 278 °C. On Pin1, this compound showed an inhibition at 10 µM of 84% and an IC50 of 0.97 µM. Besides, in the data set with PC-3 cells, growth was halved (GI50) at 11.1 µM and the “antiproliferative activity” value is recorded as “moderate antiproliferative activity”.
`Cc1ccc(NC(=O)CCn2c(CCC(=O)O)nc3ccccc32)cc1` [Compound 7a, 3-(1-(3-Oxo-3-(p-tolylamino)propyl)-1H-benzo[d]imidazol-2-yl)propanoic acid]: the melting point is 66 to 68 °C. On Pin1, 10 µM produced 60% inhibition. Also, in the data set with PC-3 cells, the GI50 was above 50 µM.
For `O=C(O)CCc1nc2ccccc2n1CCC(=O)Nc1ccc(Cl)cc1` [Compound 7b, 3-(1-(3-((4-Chlorophenyl)amino)-3-oxopropyl)-1H-benzo[d]imidazol-2-yl)propanoic acid], in that order: 66 to 68 °C, 31% and above 50 µM.
As for `Cc1cc(C)c(NC(=O)CCn2c(CCC(=O)O)nc3ccccc32)c(C)c1` [Compound 7c, 3-(1-(3-(Mesitylamino)-3-oxopropyl)-1H-benzo[d]imidazol-2-yl)propanoic acid], the melting point lay within 222 to 224 °C. Besides, the inhibition at 10 µM at Pin1 came to 60%. Further, in the data set with PC-3 cells, growth was halved (GI50) at 28.6 µM and the “antiproliferative activity” value is recorded as “moderate antiproliferative activity”.
In the case of `O=C(CCn1c(-c2nc(C(=O)O)cs2)nc2ccccc21)Nc1ccccc1` [Compound 13a, 2-(1-(3-Oxo-3-(phenylamino)propyl)-1H-benzo[d]imidazol-2-yl)thiazole-4-carboxylic acid], the melting point fell in the range of 226 to 228 °C. The compound further gave an inhibition at 10 µM against Pin1 of 73%. The compound also returned a GI50 in the data set with PC-3 cells above 50 µM.
`O=C(CCn1c(-c2nc(C(=O)O)cs2)nc2ccccc21)Nc1cccc(Br)c1` [Compound 13b, 2-(1-(3-((3-Bromophenyl)amino)-3-oxopropyl)-1H-benzo[d]imidazol-2-yl)thiazole-4-carboxylic acid] came in with a melting point of 210 to 212 °C. On Pin1, this compound had an inhibition at 10 µM of 87% and an IC50 of 0.89 µM. The concentration for 50% growth inhibition (GI50) in the data set on PC-3 cells was above 50 µM.
Compound `O=C(CCn1c(-c2nc(C(=O)O)cs2)nc2ccccc21)Nc1ccccc1Br` [Compound 13c, 2-(1-(3-((2-Bbromophenyl)amino)-3-oxopropyl)-1H-benzo[d]imidazol-2-yl)thiazole-4-carboxylic acid] showed a melting point of 186 to 188 °C. This compound also showed an inhibition at 10 µM on Pin1 of 79%. Moreover, the 50% growth inhibitory concentration (GI50) in the data set on PC-3 cells is above 50 µM.
As to `O=C1C=CC(=O)c2c(O)cccc21` [Juglone, reference compound], it took 10 µM to reach half-maximal inhibition on Pin1 (IC50). The compound further displayed a GI50 with PC-3 cells of 4.89 µM.
